Reference: PubChem BioAssay (NCI)
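Following 48 hours of exposure in 96-well plates, responses at five concentrations were used to interpolate endpoints linearly. TGI denotes the concentration required for complete inhibition of growth.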

How the values were obtained:
Test in all cases: growth of human tumour cells (NCI), 48 h
[1] = tested on: 786-0 renal
[2] = tested on: A498 renal
[3] = tested on: A549 NSCLC
[4] = tested on: ACHN renal
[5] = tested on: CAKI-1 renal
[6] = tested on: CCRF-CEM leukemia
[7] = tested on: COLO 205 colon
[8] = tested on: DLD-1 colon
[9] = tested on: DMS 114 small cell lung
[10] = tested on: DMS 273 small cell lung
[11] = tested on: EKVX NSCLC
[12] = tested on: HCC-2998 colon
[13] = tested on: HCT-116 colon
[14] = tested on: HCT-15 colon
[15] = tested on: HL-60(TB) leukemia
[16] = tested on: HOP-62 NSCLC
[17] = tested on: HOP-92 NSCLC
[18] = tested on: HT29 colon
[19] = tested on: IGROV1 ovarian
[20] = tested on: K-562 leukemia
[21] = tested on: KM12 colon
[22] = tested on: KM20L2 colon
[23] = tested on: LOX IMVI melanoma
[24] = tested on: LXFL 529 NSCLC
[25] = tested on: M14 melanoma
[26] = tested on: M19-MEL melanoma
[27] = tested on: MOLT-4 leukemia
[28] = tested on: NCI-H226 lung
[29] = tested on: NCI-H23 lung
[30] = tested on: NCI-H460 lung
[31] = tested on: OVCAR-4 ovarian
[32] = tested on: OVCAR-5 ovarian
[33] = tested on: RPMI-8226 leukemia
[34] = tested on: RXF 393 renal
[35] = tested on: RXF-631 renal
[36] = tested on: SF-268 CNS
[37] = tested on: SF-295 CNS
[38] = tested on: SF-539 CNS
[39] = tested on: SK-MEL-2 melanoma
[40] = tested on: SK-MEL-28 melanoma
[41] = tested on: SK-MEL-5 melanoma
[42] = tested on: SK-OV-3 ovarian
[43] = tested on: SN12C renal
[44] = tested on: SNB-19 CNS
[45] = tested on: SNB-75 CNS
[46] = tested on: SNB-78 CNS
[47] = tested on: SR leukemia
[48] = tested on: SW-620 colon
[49] = tested on: TK-10 renal
[50] = tested on: U251 CNS
[51] = tested on: UACC-257 melanoma
[52] = tested on: UACC-62 melanoma
[53] = tested on: UO-31 renal
[54] = tested on: NCI-H522 lung
[55] = tested on: OVCAR-8 ovarian

Measured: TGI

CC(C)=CC(=O)c1c(C(=O)O)nc2ccccc2[n+]1[O-]
not listed: [54] | [55]
> 100 µM: all other assays above

COc1ccc(OC)c2c(=O)c3ccccc3[nH]c12
94.1 µM: [28]
not listed: [1] | [4] | [5] | [7] | [8] | [12] | [14] | [20] | [22] | [23] | [24] | [31] | [33] | [35] | [37] | [38] | [39] | [41] | [43] | [45] | [48]
> 100 µM: all other assays above
